In the assay the test system is human platelets. As to the kind of experiment: Calcium release in saponin-permeabilized human platelets (Quin2 fluorescence). Type of assay: cell-based. The note with it: Platelet, pH 7.4, increase in Quin2-fluorescence, read-out: EC50 (effective concentration), release of Calcium. As to the method:
Human platelets were purified in the presence of citrate by differential centrifugation and resuspended to ca 1×10exp9 cells/ml in Tyrode-HEPES-(N-2-hydroxyethyl-piperazine-N'-2 ethane-sulfonic acid)-buffer pH 7.4 containing 0.2% w/v Bovine Serum Albumin and 1 mM EGTA (Ethylene Glycol Bis (β-Aminoethyl Ether)N,N,N',N'-Tetraacidic acid). After 20 min, the platelets were centrifuged again (700×g, 20 min) and resuspended to the same concentration in 4 ml of "assay-buffer" containing:
1.2 mM Potassiumdihydrogenphosphate
25 mM HEPES-buffer, pH as indicated
After a further 30 min, the platelet suspension was diluted 5-fold into assay-buffer containing 2 μM Quin2 (2-[[2-[bis(carboxymethyl)amino]-5-methyl-phenoxy]methyl]-6-methoxy-8-[bis[…]]quinoline) salt as a fluorescence indicator for Calcium. To this suspension Saponin was added to a final concentration of 20 μg/ml to permeabilize the cells. The fluorescence of the suspension was continually monitored with a fluorescence spectrometer until a stable baseline was achieved. At this point, IP3 was added and the resulting release of Calcium measured as an increase in the intensity of the Quin2-fluorescence. An EC50 (effective concentration) value of 2×10exp-7M was obtained at pH 7.4. IP2-5-MP itself had no effect on release of Calcium. […]

In the case of `O=P(O)(O)O[C@@H]1[C@H](O)[C@H](O)[C@@H](OP(=O)(O)O)[C@H](OP(=O)(O)O)[C@H]1O` [IP3, d-myo inositol(1.4.5)trisphosphate], the EC50 came out at 200 nM.

The values above are taken from patent US5395828A, “Inositol phosphate analogues as calcium-antagonistic substances” (Hoechst Aktiengesellschaft, priority 1991, dated 1995).
